For assay [1], the target named is T1, uPAR-expressing HEC-265 human endometrial adenocarcinoma cells (Homo sapiens, UniProt Q03405).
T1 construct: Cell surface uPAR-expressing HEC-265 human endometrial adenocarcinoma cells; host or cells: HEC-265
The assay is described as follows: Competitive FACS binding assay. The settings on record: pIC50 category of FACS binding. A digest of the protocol: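 HEC-265 cells incubated 1 h at 4 °C with 10 nM biotinylated uPAR peptide tracer plus increasing test compound, then stained with APC-streptavidin on ice. Median APC fluorescence by flow cytometry; 4PL fit gives pIC50.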
Background: A flow cytometer gives signals particle by particle.

For another assay, the target named is T2, human uPAR (uPAR-Fc) (Homo sapiens, UniProt Q03405).
T2 construct: comprising amino acids Leu23-Arg303 according to UniProt entry Q03405.1; purchased R&D Systems 10378-UK-100
The assay is described as follows: Surface plasmon resonance (SPR) assay, single cycle kinetics. It counts as binding. The conditions noted are these: pKD category for uPAR SPR activity assay; uPAR-Fc on Protein A-Chip, 25°C; read-out: pKD CAT (converted). A digest of the protocol: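 uPAR-Fc (Leu23-Arg303 extracellular domains, human IgG1 Fc) captured on Protein A chip to ~2000 RU; single-cycle kinetics at 25°C in HEPES running buffer pH 7.4 with 0.1% DMSO. KD from double-referenced sensorgrams fitted to 1:1 Langmuir model, reported as pKD.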
In general terms: Surface plasmon resonance follows binding to a sensor surface in real time, without labels.

*1 amine or outer side, *2 acyl side, *3 side chain or, on linkers, in order; H or OH if unused. Where a SMILES comes first, the peptide text is derived from it. Bridges are numbered along the chain shown (N, C = ends). [ ]: non-standard residue; d: D form. The star is where a group is joined. DOTA = O=C(O)CN1CCN(CC(=O)O)CCN(CC(=O)*)CCN(CC(=O)O)CC1; Pro(cis-4-F) = O=C(O)[C@@H]1C[C@H](F)CN1; Tyr(3-NH2) = Nc1cc(C[C@H](N)C(=O)O)ccc1O; Hyp = O=C(O)[C@@H]1C[C@@H](O)CN1; Pentanoyl(4-Me) = CC(C)CCC(=O)*; Cit = NC(=O)NCCC[C@H](N)C(=O)O; Butoxycarbonyl = CCCCOC(=O)*; Pip = O=C(O)[C@@H]1CCCCN1; Nle = CCCC[C@H](N)C(=O)O; Orn = NCCC[C@H](N)C(=O)O; Nva = CCC[C@H](N)C(=O)O; Hexanoyl = CCCCCC(=O)*; Pentanoyl = CCCCC(=O)*; CO = O=C([*:1])[*:2]; NHBu = CCCCN*

In general, IC50 refers to the concentration that gives 50% inhibition. A lower IC50 goes with greater potency in that assay.

T2 sequence (Q03405 23-303): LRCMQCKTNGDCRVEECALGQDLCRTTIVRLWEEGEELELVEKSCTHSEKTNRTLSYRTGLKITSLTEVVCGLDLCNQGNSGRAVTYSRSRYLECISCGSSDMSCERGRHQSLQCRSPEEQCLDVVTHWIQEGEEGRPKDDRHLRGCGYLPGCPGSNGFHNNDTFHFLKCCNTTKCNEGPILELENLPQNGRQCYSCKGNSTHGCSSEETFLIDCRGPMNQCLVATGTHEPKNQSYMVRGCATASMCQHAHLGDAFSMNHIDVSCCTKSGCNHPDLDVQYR
T1 sequence (Q03405 23-335): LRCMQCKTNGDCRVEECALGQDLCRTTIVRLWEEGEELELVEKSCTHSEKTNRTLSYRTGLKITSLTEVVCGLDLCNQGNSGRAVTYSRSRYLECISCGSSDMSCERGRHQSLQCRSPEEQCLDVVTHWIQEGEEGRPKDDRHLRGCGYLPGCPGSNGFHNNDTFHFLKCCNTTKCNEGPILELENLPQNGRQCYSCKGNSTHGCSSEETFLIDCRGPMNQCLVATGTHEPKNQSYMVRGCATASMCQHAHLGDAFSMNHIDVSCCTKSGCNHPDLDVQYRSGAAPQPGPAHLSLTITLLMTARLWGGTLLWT

Molecule `CC[C@H](C)[C@@H]1NC(=O)[C@@H](C)NC(=O)[C@@H]2CCCN2C(=O)[C@H](Cc2ccccc2)NC(=O)[C@H](Cc2ccc(O)cc2)NC(=O)[C@H](CCC(N)=O)NC(=O)[C@@H](C)NC(=O)[C@@H](NC(=O)CCC(C)C)CSSC[C@@H](C(N)=O)NC(=O)[C@H](CC(C)C)NC1=O` [UPAR-231, iHex-[Cys-ala-Gln-Tyr-Phe-Pro-ala-Ile-Leu-Cys]-NH2] ({Pentanoyl(4-Me)}-C[dA]QYFP[dA]ILC-NH2; disulfide 1-10) showed an IC50 in assay [1] of 39.8 to 100 nM. For the same molecule, on human uPAR (uPAR-Fc), the Kd is 10 to 100 nM.
On the same counts, the results for `CC[C@H](C)[C@@H]1NC(=O)[C@@H](C)NC(=O)[C@@H]2CCCCN2C(=O)[C@H](Cc2ccccc2)NC(=O)[C@H](Cc2ccc(O)cc2)NC(=O)[C@H](CCC(N)=O)NC(=O)[C@H](CCCNC(N)=O)NC(=O)[C@@H](NC(=O)CCC(C)C)CSSC[C@@H](C(N)=O)NC(=O)[C@H](CC(C)C)NC1=O` [UPAR-232, iHex-[Cys-Cit-Gln-Tyr-Phe-Pip-ala-Ile-Leu-Cys]-NH2] ({Pentanoyl(4-Me)}-C[Cit]QYF[Pip][dA]ILC-NH2; disulfide 1-10) are no more than 10 nM and 1.58 to 10 nM.
On the same counts, the results for `CCCCOC(=O)N[C@H]1CSSC[C@@H](C(N)=O)NC(=O)[C@H](CCC)NC(=O)[C@H]([C@@H](C)CC)NC(=O)[C@@H]2C[C@@H](O)CN2C(=O)[C@@H]2C[C@H](F)CN2C(=O)[C@H](Cc2ccccc2)NC(=O)[C@H](Cc2ccc(O)c(N)c2)NC(=O)[C@H](CCCNC(=O)CN2CCN(CC(=O)O)CCN(CC(=O)O)CCN(CC(=O)O)CC2)NC(=O)[C@H]([C@@H](C)O)NC1=O` [UPAR-234, Butoc-[Cys-Thr-Orn(DOTA)-Ay3-Phe-4Cfp-Hyp-Ile-Nva-Cys]-NHz] (Butoxycarbonyl-CT[Orn](DOTA)[Tyr(3-NH2)]F[Pro(cis-4-F)][Hyp]I[Nva]C-NH2; disulfide 1-10) are no more than 10 nM and less than 1.58 nM.
Take `CCCCCC(=O)N[C@@H](CC(=O)O)C(=O)N[C@@H](CC(C)C)C(=O)N[C@H]1CSSC[C@@H](C(N)=O)NC(=O)[C@H](CC(C)C)NC(=O)[C@H]([C@@H](C)CC)NC(=O)[C@H](C)NC(=O)[C@@H]2CCCN2C(=O)[C@H](Cc2ccccc2)NC(=O)[C@H](Cc2ccc(O)cc2)NC(=O)[C@H](CCSC)NC(=O)[C@H](CCCCNC(=O)CN2CCN(CC(=O)O)CCN(CC(=O)O)CCN(CC(=O)O)CC2)NC1=O` [UPAR-235, Hex-Asp-Leu-[Cys-Lys(DOTA)-Met-Tyr-Phe-Pro-Ala-Ile-Leu-Cys]-NH2] (Hexanoyl-DLCK(DOTA)MYFPAILC-NH2; disulfide 3-12): the IC50 in assay [1] is no more than 10 nM. For the same molecule, on human uPAR (uPAR-Fc), the Kd is less than 1.58 nM.
The corresponding values for `CCCCC(=O)N[C@H]1CSSC[C@@H](C(N)=O)NC(=O)[C@H](CCC)NC(=O)[C@H]([C@@H](C)CC)NC(=O)[C@@H]2C[C@@H](O)CN2C(=O)[C@@H]2CCCN2C(=O)[C@H](Cc2ccccc2)NC(=O)[C@H](Cc2ccc(O)cc2)NC(=O)[C@H](CCC(N)=O)NC(=O)CNC1=O` [UPAR-236, Pent-[Cys-Gly-Gln-Tyr-Phe-Pro-Hyp-Ile-Nva-Cys]-NH2] (Pentanoyl-CGQYFP[Hyp]I[Nva]C-NH2; disulfide 1-10) are no more than 10 nM and less than 1.58 nM.
`CCCCOC(=O)N[C@H]1CSSC[C@@H](C(N)=O)NC(=O)[C@H](CCC)NC(=O)[C@H]([C@@H](C)CC)NC(=O)[C@@H]2C[C@@H](O)CN2C(=O)[C@@H]2C[C@H](F)CN2C(=O)[C@H](Cc2ccccc2)NC(=O)[C@H](Cc2ccc(O)cc2)NC(=O)[C@H](CCCCNC(=O)CN2CCN(CC(=O)O)CCN(CC(=O)O)CCN(CC(=O)O)CC2)NC(=O)[C@H]([C@@H](C)O)NC1=O` [UPAR-237, Butoc-[Cys-Thr-Lys(DOTA)-Tyr-Phe-4Cfp-Hyp-Ile-Nva-Cys]-NH2] (Butoxycarbonyl-CTK(DOTA)YF[Pro(cis-4-F)][Hyp]I[Nva]C-NH2; disulfide 1-10) had an IC50 in assay [1] of no more than 10 nM. Moreover, on human uPAR (uPAR-Fc), the Kd was less than 1.58 nM.
`CCCC[C@@H]1NC(=O)[C@H](CCC(=O)O)NC(=O)[C@@H](NC(=O)[C@H](CC(C)C)NC(=O)[C@H](CC(=O)O)NC(C)=O)CSSC[C@@H](C(N)=O)NC(=O)[C@H](CC(C)C)NC(=O)[C@H]([C@@H](C)CC)NC(=O)[C@H](C)NC(=O)[C@@H]2CCCN2C(=O)[C@H](Cc2ccccc2)NC(=O)[C@H](Cc2ccc(O)cc2)NC1=O` [UPAR-239, Ac-Asp-Leu-[Cys-Glu-Nle-Tyr-Phe-Pro-Ala-Ile-Leu-Cys]-NH2] (Ac-DLCE[Nle]YFPAILC-NH2; disulfide 3-12) showed an IC50 in assay [1] of no more than 10 nM. Also, the Kd at human uPAR (uPAR-Fc) was less than 1.58 nM.
On the same counts, the results for `CC[C@H](C)[C@@H]1NC(=O)[C@@H]2C[C@@H](O)CN2C(=O)[C@@H]2CCCN2C(=O)[C@H](Cc2ccccc2)NC(=O)[C@H](Cc2ccc(O)cc2)NC(=O)[C@H](CCCCNC(=O)CN2CCN(CC(=O)O)CCN(CC(=O)O)CCN(CC(=O)O)CC2)NC(=O)[C@H](CCCNC(N)=O)NC(=O)[C@@H](NC(=O)CCC(C)C)CSSC[C@@H](C(N)=O)NC(=O)[C@H](CC(C)C)NC1=O` [UPAR-240, iHex-[Cys-Cit-Lys(DOTA)-Tyr-Phe-Pro-Hyp-Ile-Leu-Cys]-NH2] ({Pentanoyl(4-Me)}-C[Cit]K(DOTA)YFP[Hyp]ILC-NH2; disulfide 1-10) are no more than 10 nM and less than 1.58 nM.
The corresponding values for `CCCCNC(=O)N[C@H]1CSSC[C@@H](C(N)=O)NC(=O)[C@H](CCC)NC(=O)[C@H]([C@@H](C)CC)NC(=O)[C@@H]2C[C@@H](O)CN2C(=O)[C@@H]2CCCN2C(=O)[C@H](Cc2ccccc2)NC(=O)[C@H](Cc2ccc(O)cc2)NC(=O)[C@H](CCCCNC(=O)CN2CCN(CC(=O)O)CCN(CC(=O)O)CCN(CC(=O)O)CC2)NC(=O)[C@H]([C@@H](C)O)NC1=O` [UPAR-242, nBuCAyl-[Cys-Thr-Lys(DOTA)-Tyr-Phe-Pro-Hyp-Ile-Nva-Cys]-NHz] ({NHBu-CO}-CTK(DOTA)YFP[Hyp]I[Nva]C-NH2; disulfide 1-10) are no more than 10 nM and less than 1.58 nM.
The corresponding values for `CC[C@H](C)[C@@H]1NC(=O)[C@@H](C)NC(=O)[C@@H]2CCCN2C(=O)[C@H](Cc2ccccc2)NC(=O)[C@H](Cc2ccc(O)cc2)NC(=O)[C@H](CCC(N)=O)NC(=O)[C@H](CCCNC(N)=O)NC(=O)[C@@H](NC(C)=O)CSSC[C@@H](C(N)=O)NC(=O)[C@H](CC(C)C)NC1=O` [UPAR-243, Ac-[Cys-Cit-Gln-Tyr-Phe-Pro-ala-Ile-Leu-Cys]-NH2] (Ac-C[Cit]QYFP[dA]ILC-NH2; disulfide 1-10) are no less than 126 nM and greater than 100 nM.
For `CCCC[C@@H]1NC(=O)[C@H](CCCNC(=N)N)NC(=O)[C@@H](NC(=O)[C@@H](CC(C)C)NC(=O)[C@H](CC(=O)O)NC(C)=O)CSSC[C@@H](C(N)=O)NC(=O)[C@H](CC(C)C)NC(=O)[C@H]([C@@H](C)CC)NC(=O)[C@H](C)NC(=O)[C@@H]2CCCN2C(=O)[C@H](Cc2ccccc2)NC(=O)[C@H](Cc2ccc(O)cc2)NC1=O` [UPAR-244, Ac-Asp-leu-[Cys-Arg-Nle-Tyr-Phe-Pro-Ala-Ile-Leu-Cys]-NH2] (Ac-D[dL]CR[Nle]YFPAILC-NH2; disulfide 3-12), the IC50 in assay [1] was no more than 10 nM. Also, the Kd on human uPAR (uPAR-Fc) was less than 1.58 nM.

The values above are taken from patent publication EP4610269A1, “UROKINASE PLASMINOGEN ACTIVATOR SURFACE RECEPTOR (UPAR) LIGANDS FOR DIAGNOSTIC OR THERAPEUTIC USE” (3B Pharmaceuticals GmbH, priority 2024, dated 2025).
